From PMC4503722, “Novel Phenotypic Outcomes Identified for a Public Collection of Approved Drugs from a Publicly Accessible Panel of Assays” (PLoS ONE, 2015)
Read-outs that look alike come from different tables or passages of the source.

Assays:
NCI-H716 cells = experiment: cells; format: cell-based, Human
[1] = system: ECFC/ADSC co-culture cell nuclei number
DLD-1 = experiment: cells; format: cell-based
HeLa cells = experiment: cells; format: cell-based
[2] = system: endothelial tube formation in co-cultures of ECFCs and ADSCs treated with VEGF; experiment: cells; format: cell-based, human
SW480 = experiment: cells; format: cell-based
STC-1 cell line = format: cell-based, mouse
SNU-C1 = experiment: cells; format: cell-based
HT-29 = experiment: cells; format: cell-based
RKO = experiment: cells; format: cell-based
HCT116 = experiment: cells; format: cell-based
Colo320 = experiment: cells; format: cell-based
[3] = system: HCT116 cells treated with a GSK3β inhibitor; experiment: cells; format: cell-based; settings: assay number 26; GSK3b inhibitor pretreated

SMILES	hNCI-H716 GLP1 Secretion IC50/EC50 (NCI-H716 cells) [µM]	VEGF_ADSC\ECFC Angio Hoechst NucArea IC50/EC50 [1] [µM]	Basal_Viability ATP DLD-1 IC50/EC50 (DLD-1) [µM]	VEGF_ADSC\ECFC Angio CD31 TubeArea IC50/EC50 [2] [µM]	Basal_Viability ATP SW480 IC50/EC50 (SW480) [µM]	mSTC-1 GLP1 Secretion IC50/EC50 (STC-1 cell line) [µM]	Basal_Viability ATP SNU-C1 IC50/EC50 (SNU-C1) [µM]	Basal_Viability ATP RKO IC50/EC50 (RKO) [µM]	Basal_Viability ATP HCT116 IC50/EC50 (HCT116) [µM]	Basal_Viability ATP Colo 320 IC50/EC50 (Colo320) [µM]	hNCI-H716 GLP1 Secretion IC50/EC50 (NCI-H716 cells; assay number 12) [µM]	mSTC-1 GLP1 Secretion IC50/EC50 (STC-1 cell line; assay number 13) [µM]	also measured
CCc1oc2ccccc2c1C(=O)c1cc(Br)c(O)c(Br)c1 [NCGC00013895-08]	> 40	> 10	0.2675	> 10	1.7408	> 40	0.1053	0.1312	1.057	> 20			Hela CellCycMod PI 2N IC50/EC50 (HeLa cells): > 10 µM; Hela CellCycMod PI 4N IC50/EC50 (HeLa cells): > 10 µM; Hela CellCycMod PI Cell Number IC50/EC50 (HeLa cells): > 10 µM; Hela CellCycMod PI MI IC50/EC50 (HeLa cells): > 10 µM; Hela CellCycMod PI S Phase IC50/EC50 (HeLa cells): > 10 µM; Basal_Viability ATP HT-29 IC50/EC50 (HT-29): 1.1416 µM
Clc1ccccc1C(c1ccccc1)(c1ccccc1)n1ccnc1 [NCGC00015251-13]													IC50/EC50, hNCI-H716 GLP1 Secretion (assay number 12) (NCI-H716 cells; concentration response): 20.2249 µM; IC50/EC50, VEGF_ADSC\ECFC Angio Hoechst NucArea (assay number 3) [1]: > 10 µM; IC50/EC50, Hela CellCycMod PI 2N (assay number 14) (HeLa cells; 2N): > 10 µM; IC50/EC50, Hela CellCycMod PI 4N (assay number 16) (HeLa cells; 4N): > 10 µM; IC50/EC50, Hela CellCycMod PI Cell Number (assay number 18) (HeLa cells; Cell Number): > 10 µM; IC50/EC50, Hela CellCycMod PI MI (assay number 17) (HeLa cells; MI): > 10 µM; IC50/EC50, Hela CellCycMod PI S Phase (assay number 15) (HeLa cells; S Phase): > 10 µM; IC50/EC50, VEGF_ADSC\ECFC Angio CD31 TubeArea (assay number 2) [2]: 3.0384 µM; IC50/EC50, mSTC-1 GLP1 Secretion (assay number 13) (STC-1 cell line; concentration response): > 40 µM
C[n+]1cc2c3c(ccc2c2ccc4cc5c(cc4c21)OCO5)OCO3 [NCGC00015959-09]	> 40	0.9705	0.5755	0.5372	0.3789	> 40	0.3161	0.2646	0.5253	0.3498			
CCCCCCCCCCCCCCCC[N+](C)(C)CCN(Cc1ccc(OC)cc1)c1ncccn1.[Br-] [NCGC00016507-05]		> 10		3.0741							17.7844	> 40	Hela CellCycMod PI 2N IC50/EC50 (HeLa cells; assay number 14, 2N): > 10 µM; Hela CellCycMod PI 4N IC50/EC50 (HeLa cells; assay number 16, 4N): > 10 µM; Hela CellCycMod PI MI IC50/EC50 (HeLa cells; assay number 17, MI): > 10 µM; Hela CellCycMod PI Cell Number IC50/EC50 (HeLa cells; assay number 18, cell number): 0.3488 µM
CC[C@H](C)C(=O)O[C@H]1C[C@@H](C)C=C2C=C[C@H](C)[C@H](CC[C@@H]3C[C@@H](O)CC(=O)O3)[C@H]21 [NCGC00023509-13]		> 10		3.2658							32.895	> 40	Hela CellCycMod PI 2N IC50/EC50 (HeLa cells; assay number 14, 2N): > 10 µM; Hela CellCycMod PI S Phase IC50/EC50 (HeLa cells; assay number 15, S phase): > 10 µM; Hela CellCycMod PI 4N IC50/EC50 (HeLa cells; assay number 16, 4N): > 10 µM; Hela CellCycMod PI MI IC50/EC50 (HeLa cells; assay number 17, MI): > 10 µM; Hela CellCycMod PI Cell Number IC50/EC50 (HeLa cells; assay number 18, cell number): > 10 µM
C[C@@H]1CN(CCCn2c3ccccc3c3ccccc32)C[C@H](C)N1 [NCGC00025187-02]											6.3711	> 40	Basal_Viability ATP DLD-1 IC50/EC50 (DLD-1; assay number 23, basal): 9.7994 µM; Basal_Viability ATP SW480 IC50/EC50 (SW480; assay number 24, basal): 2.353 µM; Basal_Viability ATP SNU-C1 IC50/EC50 (SNU-C1; assay number 30, basal): 6.023 µM; GSK3b inh pretreated_Viability ATP HCT116 IC50/EC50 [3]: 3.848 µM; Basal_Viability ATP HT-29 IC50/EC50 (HT-29; assay number 28, basal): 4.021 µM; Basal_Viability ATP RKO IC50/EC50 (RKO; assay number 29, basal): 2.184 µM; Basal_Viability ATP HCT116 IC50/EC50 (HCT116; assay number 25, basal): 10.5492 µM; Basal_Viability ATP Colo 320 IC50/EC50 (Colo320; assay number 27, basal): 15.9001 µM
O=C(Nc1ccc(Oc2ccc(Cl)cc2)c(Cl)c1)c1cc(I)cc(I)c1O [NCGC00160556-02]	> 40	6.571	0.0084	> 10	0.0108	1.3019	0.0143	0.0303	0.01695	0.054			Basal_Viability ATP HT-29 IC50/EC50 (HT-29): 0.0095 µM
COCC(=O)O[C@]1(CCN(C)CCCc2nc3ccccc3[nH]2)CCc2cc(F)ccc2[C@@H]1C(C)C [NCGC00161420-06]		> 10		> 10							> 40	8.237	Basal_Viability ATP DLD-1 IC50/EC50 (DLD-1; assay number 23): 7.2629 µM; Basal_Viability ATP SW480 IC50/EC50 (SW480; assay number 24): 4.5426 µM; Basal_Viability ATP SNU-C1 IC50/EC50 (SNU-C1; assay number 30): 5.4372 µM; GSK3b inh pretreated_Viability ATP HCT116 IC50/EC50 [3]: 5.3311 µM; Basal_Viability ATP HT-29 IC50/EC50 (HT-29; assay number 28): 3.0782 µM; Basal_Viability ATP RKO IC50/EC50 (RKO; assay number 29): 6.7187 µM; Basal_Viability ATP HCT116 IC50/EC50 (HCT116; assay number 25, basal): 12.3743 µM; Basal_Viability ATP Colo 320 IC50/EC50 (Colo320; assay number 27): 10.5076 µM
